In patent publication US20260356849A1, “COMPOUNDS AND METHODS FOR TREATING CANCERS” (CEDARS-SINAI MEDICAL CENTER, priority 2022, published 2026):
“Also recorded” adds a separate entry of the source.

Assays:
AML12 cells [1] = assay: Clonogenic assay AML12; assay type: cell-based; conditions: 1-10 μM, 24 hours then drug free medium 10-20 days
Experimental: (§1) RKO, HepG2, and AML12 cells were treated with 1-10 μM compound C3 for 24 hours and maintained in drug free medium for 10-20 days.

MEK and ERK activity [2] = assay: Western blot ERK and MEK activity in HepG2 cells; assay type: cell-based; conditions: 2-10 μM, 24 hours
Experimental: (§2) Treatment of human hepatocytes with 10 μM compound C3 had no effect on MEK or ERK activity.

RKO cells [3] = assay: RKO growth in liver of nude mice; assay type: in vivo; conditions: 25 mg/kg ip daily for 5 days
Experimental: FIG. 39A-FIG. 39D depicts, in accordance with various embodiments of the invention, compound C3 inhibits human CRC growth in liver. RKO cells (2×10^6) stably expressing luciferase were injected into the liver of nude mice. Twenty days later (day 0) DMSO and compound C3 were injected intraperitoneally (ip) in FIG. 39A pilot experiment using 10 mg/kd/d×5 days, rest 2 days and repeat. FIG. 39B 25 mg/kg daily for 5 days and imaged on day 7 using IVIS Spectrum photon-counting device optical imaging system (Xenogen, Alameda, CA.). FIG. 39C graph summarizes luciferase intensity from FIG. 39B. FIG. 39D gross pictures of the livers at day 7 from FIG. 39B, point to tumors *p<0.05.
Compound C3 powder was dissolved in pure DMSO at 50 mg/ml, as a stock store in-80 °C. Stock solution was dissolved in 200 μl 0.9% saline to reach 25 mg/kg. For control group, DMSO was dissolved in 200 μl saline to achieve a concentration of DMSO in saline of 7.5%. RKO cells (2×106) stably expressing luciferase were injected directly into the liver of nude mice. Twenty days later DMSO and Compound C3 were injected intraperitoneally (ip) at a dose of 25 mg/kg daily for 5 days and imaged on day 7.

HepG2 cells [4] = assay: Cell cycle flow cytometry HepG2; assay type: cell-based; conditions: 1-5 μM, 24 hours
GIT1-MAT2B = GIT1-MAT2B (Homo sapiens, UniProt Q9Y2X7); assay: Co-IP MAT2B-GIT1 interaction in HepG2 cells; assay type: cell-based; conditions: HepG2, 10 μM, 24 hours
Excerpt: GIT1-MAT2B scaffold complex sequesters and activates RAS/RAF/MEK/ERK signaling.

RKO cells [5] = assay: Cell cycle flow cytometry RKO; assay type: cell-based, human; conditions: 1-5 μM, 24 hours
Cyclin D1 = Cyclin D1 protein level in cancer cells; assay type: cell-based; conditions: 10 μM, 24 hours
RKO cells [6] = assay: Migration assay RKO; assay type: cell-based, human; conditions: 1 μM, 24 hours
GIT1 = GIT1 dependence of cyclin B1 and EdU effects; assay type: cell-based
HEK293 cells = assay: Annexin V-FITC/propidium iodide assay HEK293; assay type: cell-based; conditions: 5 μM, 24-48 hours
Experimental: (§3) FIG. 8 depicts, in accordance with various embodiments of the invention, results of an annexin V-FITC/propidium iodide binding assay performed in human and mouse hepatocytes, AML12, HEK293, HepG2, and RKO cells after treatment with 5 μM of a GIT1 inhibitor or DMSO for 24-48 hours (results are shown as mean±SE from at least 3 experiments. *p<0.05 vs. DMSO).
(§4) An annexin V-FITC/propidium iodide (PI) binding assay was performed with flow cytometry. […] Both G2/M arrest and cell death are mechanisms by which compound C3 inhibits cancer cells' growth.

M2 macrophages (CD206+) = assay: Flow cytometry of macrophages in CRLM tumors; assay type: in vivo, mice
Excerpt: Liver tumors from CRLM model in syngeneic mice were processed for flow cytometry. […] In this subgroup, CD206+ was used to identify M2 macrophages.

MEK and ERK activity [7] = assay: MEK and ERK activity in human hepatocytes; assay type: cell-based; conditions: 10 μM
Experimental: as §2

AML12 cells [8] = assay: Annexin V-FITC/propidium iodide assay AML12; assay type: cell-based; conditions: 5 μM, 24-48 hours
Experimental: as §3, §4

HepG2 cells [9] = assay: Clonogenic assay HepG2; assay type: cell-based; conditions: 1 μM, 24 hours then drug free medium 10-20 days; dose dependent
Experimental: as §1

MEK and ERK activity [10] = assay: Western blot ERK and MEK activity in MC38 cells; assay type: cell-based; conditions: 10 μM, 24 hours
human hepatocytes = assay: Annexin V-FITC/propidium iodide assay human hepatocytes; assay type: cell-based; conditions: 5 μM, 24-48 hours
Experimental: as §3, §4

[11] = tested on: malignant (HepG2, MzChA-1, HT-29, RKO) cells; assay: EdU/MTT growth assay in cancer cells; assay type: cell-based
Experimental: The inventors identified nine inhibitors and perfomed an EdU assay after treating non-malignant (HEK293, AML12) and malignant (HepG2, MzChA-1, HT-29, RKO) cells with varying concentrations of GIT1 inhibitor for 24 hours (results are mean±SE from 3 independent experiments done in duplicates, *p<0.05 vs. DMSO). An MTT assay was also performed after treating primary human and mouse hepatocytes and liver and colon cancer cells with varying concentrations of GIT1 inhibitor for 24 hours (results are mean±SE from 3 independent experiments done in duplicates, *p<0.05 vs. DMSO). […] Percoll may be used to remove dead human hepatocytes.

MC38 cells = assay: Syngeneic subcutaneous MC38 mouse model; assay type: in vivo, C57/BL6 mouse
Experimental: MC38 cells were injected subcutaneously in both flanks. Compound C3 and DMSO were injected intratumorally every other day at 100 μM (5×IC50) starting at day 7 when the tumors averaged 0.5 cm in diameter. Tumor size was measured by caliper, with the tumor volume calculated according to the formula: (π/6)*(length*width*height). Each mouse received compound C3 injection in tumors on one flank and DMSO in the contralateral tumor. Animals were sacrificed on day 13.

cyclin B1/CDK1 = assay: Cyclin B1/CDK1 activation; assay type: cell-based
Experimental: HepG2 and RKO cells were treated with 5 μM of compound C3 for 24 hours, followed by co-IP with anti-CDK1 antibody and western blots. […] The densitometric changes are from at least 3 independent experiments in mean±SE; *p<0.05 vs. DMSO. Binding of cyclin BI to CDK1 initiates conformational changes allowing CDK1 to alter its phosphorylation status and to become an active kinase.

[12] = 100 μM intratumorally every other day
[13] = 100 μM intratumorally, western blot

GIT1-MAT2B, sequence (Q9Y2X7 whole entry): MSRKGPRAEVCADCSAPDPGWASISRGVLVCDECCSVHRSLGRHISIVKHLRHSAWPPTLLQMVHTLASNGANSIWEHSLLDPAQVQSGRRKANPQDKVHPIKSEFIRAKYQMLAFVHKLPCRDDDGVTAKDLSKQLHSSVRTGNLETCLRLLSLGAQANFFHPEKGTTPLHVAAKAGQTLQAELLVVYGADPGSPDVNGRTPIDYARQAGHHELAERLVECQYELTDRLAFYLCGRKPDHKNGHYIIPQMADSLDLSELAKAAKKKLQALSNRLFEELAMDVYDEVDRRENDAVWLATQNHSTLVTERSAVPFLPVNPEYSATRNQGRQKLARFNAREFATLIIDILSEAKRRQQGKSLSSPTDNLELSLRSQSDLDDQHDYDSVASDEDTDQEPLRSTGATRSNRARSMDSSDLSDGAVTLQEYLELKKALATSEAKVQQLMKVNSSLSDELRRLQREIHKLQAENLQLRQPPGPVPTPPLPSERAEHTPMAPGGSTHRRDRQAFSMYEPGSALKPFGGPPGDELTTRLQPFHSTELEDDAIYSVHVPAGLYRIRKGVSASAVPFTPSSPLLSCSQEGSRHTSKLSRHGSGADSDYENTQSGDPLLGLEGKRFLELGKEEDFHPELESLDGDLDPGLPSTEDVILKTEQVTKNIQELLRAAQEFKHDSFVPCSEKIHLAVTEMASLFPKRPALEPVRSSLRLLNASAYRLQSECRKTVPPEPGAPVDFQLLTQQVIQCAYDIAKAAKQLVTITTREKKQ

**Q.** With `CC1(C)Cc2nc3sc4c(=O)n(CC(=O)NCc5ccco5)cnc4c3cc2CO1` [Compound C3, 2-(8,8-Dimethyl-4-oxo-7,10-dihydro-8H-pyrano[3″,4″: 5′,6′]pyrido[3′,2′: 4,5]thieno[3,2-d]pyrimidin-3 (4H)-yl)-N-(2-furylmethyl) acetamide] as the compound, how does the “clonogenic potential, AML12” value (AML12 cells [1]) read?
**A.** The value was “no effect on clonogenic potential”.

**Q.** And the “ERK and MEK activities, HepG2” value (MEK and ERK activity [2])?
**A.** The value was “lower”.

**Q.** What about the overt toxicity (RKO cells [3]) of the same compound?
**A.** Its overt toxicity is “without causing overt toxicity”.

**Q.** And the “tumor growth in liver” value (RKO cells [3]; imaged day 7)?
**A.** Its value is “effective in reducing tumor growth”.

**Q.** What about the “G2/M phase, HepG2” value (HepG2 cells [4]) of the same compound?
**A.** Its value is “G2/M phase was significantly increased”.

**Q.** And the “percentage of cells in G1 phase, HepG2” value (HepG2 cells [4])?
**A.** Its value is “lowered the percentage of cells in G1 phase”.

**Q.** What about the GIT1-MAT2B scaffold formation (GIT1-MAT2B) of the same compound?
**A.** Its GIT1-MAT2B scaffold formation is “disrupted GIT1-MAT2B scaffold formation”.

**Q.** And the “G2/M phase, RKO” value (RKO cells [5])?
**A.** Its value is “G2/M phase was significantly increased”.

**Q.** What about the “percentage of cells in G1 phase, RKO” value (RKO cells [5]) of the same compound?
**A.** The value was “lowered the percentage of cells in G1 phase”.

**Q.** What about the “Cyclin D1 protein level, cancer cells” value (Cyclin D1) of the same compound?
**A.** Its value is “lower in cancer cells”.

**Q.** What about the “migration of RKO cells” value (RKO cells [6]) of the same compound?
**A.** The value was “significant inhibition in migration”.

**Q.** And the “GIT1 dependence of lower EdU (growth)” value (GIT1)?
**A.** The value was “lower EdU requires GIT1”.

**Q.** What about the “GIT1 dependence of increase in cyclin B1 level / stabilization” value (GIT1; n=3) of the same compound?
**A.** Its value is “GIT1 dependent; also recorded: increase in cyclin BI level requires GIT1”.

**Q.** And the “cell death, HEK293” value (HEK293 cells)?
**A.** The value was “does not induce cell death”.

**Q.** And the “M2 macrophages in the tumors” value (M2 macrophages (CD206+); CD206+, n=6 each group)?
**A.** The value was “dramatically reduced M2 macrophages”.

**Q.** And the “M1 and CD8+ T cells in the tumors” value (M2 macrophages (CD206+); strong indication)?
**A.** The value was “raised MI and CD8+ T cells”.

**Q.** What about the “MEK or ERK activity, human hepatocytes” value (MEK and ERK activity [7]) of the same compound?
**A.** Its value is “no effect”.

**Q.** And the “cell death, AML12” value (AML12 cells [8])?
**A.** Its value is “does not induce cell death”.

**Q.** What about the “clonogenic potential, HepG2” value (HepG2 cells [9]) of the same compound?
**A.** The value was “inhibited the clonogenic potential”.

**Q.** What about the “ERK and MEK activities, MC38” value (MEK and ERK activity [10]) of the same compound?
**A.** Its value is “lower”.

**Q.** What about the “cell death, human hepatocytes” value (human hepatocytes) of the same compound?
**A.** Its value is “does not induce cell death”.

**Q.** And the “apoptosis in cancer cells (FIG. 33)” value [11]?
**A.** Its value is “slight increase in apoptosis”.

**Q.** What about the “cytotoxicity in cancer cells” value ([11]; 10 μM, 24 hours) of the same compound?
**A.** The value was “cytotoxic in cancer cells at 10 μM”.

**Q.** And the growth inhibitory effect ([11]; 24 hours, among nine inhibitors)?
**A.** Its growth inhibitory effect is “most potent growth inhibitory effect”.

**Q.** And the “H&E of tumors” value (MC38 cells; [12])?
**A.** Its value is “spindle MC38 tumor cells turned into small round cells”.

**Q.** What about the “H&E staining of major organs” value (MC38 cells; [12]) of the same compound?
**A.** Its value is “no tissue damage or toxicity”.

**Q.** What about the “PCNA staining in tumors” value (MC38 cells; [12]) of the same compound?
**A.** Its value is “dramatic effect in reducing its staining”.

**Q.** And the “TUNEL assay of tumors” value (MC38 cells; [12])?
**A.** The value was “more apoptopic cells”.

**Q.** What about the body weights (MC38 cells; [12]) of the same compound?
**A.** Its body weights is “not significantly different”.

**Q.** What about the “tumor growth, subcutaneous” value (MC38 cells; 100 μM intratumorally every other day from day 7, day 13) of the same compound?
**A.** Its value is “inhibits colon cancer growth”.

**Q.** What about the “MEK1/2 activity in tumors” value (MC38 cells; [13]) of the same compound?
**A.** Its value is “decreased MEK1/2 activity”.

**Q.** What about the “cyclin D1 level in tumors” value (MC38 cells; [13]) of the same compound?
**A.** The value was “less cyclin D1 level”.

**Q.** And the “cyclin B1/CDK1 activation” value (cyclin B1/CDK1)?
**A.** The value was “activated cyclin B1/CDK1”.
